Data from patent US8242250B2, “Nucleic acid molecule encoding a cystine knot polypeptide” (The University of Queensland, priority 1999, dated 2012).

Key:
[1] = tested on: Helicoverpa punctigera larvae; assay: Bioassay with Haricot bean artificial diet, growth and development of larvae; format: in vivo
Procedure: Helicoverpa punctigera larvae were raised on artificial diets based on Haricot beans (Teakle et al. (13)). One litre of diet was composed of 234 g Haricot beans, 14 g agar, 700 ml water, 35 g Tortula yeast, 50 g wheatgerm, 3.5 g ascorbic acid, 1.1 g sorbic acid, 2.2 g p-hydroxybenzoic acid methyl ester, 0.2 g ampicillin, 0.2 g streptomycin, 16 mg prochloraz. The beans were soaked overnight in water, drained and homogenized to a fine paste. Wheatgerm, yeast and 300 ml of water were added. The agar was dissolved in 400 ml of boiling water and added to the mixture. The mixture was cooled to 50° C. before the addition of the remaining ingredients. The blended diet was poured into trays and after setting was used immediately or stored at −20° C. for no longer than two weeks. The test diet was supplemented with the Kalata B1 peptide (0.825 μmol/g of diet). Twenty newly emerged neonates were added to each diet and mortality was recorded every two days. Weight gain was recorded at the sixth day and then every second day thereafter. The larvae were reared in 1.5 ml eppendorfs microfuge tubes (one larva/tube) until day eight when they were transferred to individual plastic containers with lids (Solo (trademark) plastic portion cups, 28 ml) at the eight day. Larvae were fed small amounts of diet (40 mg) initially that was replaced as required to provide a continuous supply. The larvae were kept in a temperature controlled room at 25±1° C., 16:8 (L:D).
Most larvae on the control diet, however, had achieved fifth instar (FIGS. 13B, C).

[2] = tested on: Helicoverpa armigera larvae; assay: Bioassay with cotton leaf artificial diet, growth and development of larvae; format: in vivo
Procedure: Helicoverpa armigera larvae were raised on an artificial diet based on cotton leaves. One hundred ml of cotton leaf artificial diet was composed of 3 g cotton leaf powder (see below), 2 g Tortula yeast, 2.4 g wheat germ, 3.2 g ascorbic acid, 0.08 g sorbic acid, 0.16 g paraben (mould inhibitor), 0.08 ml linseed oil, 0.16 ml wheatgerm oil, 0.028 g ampicillin, 0.028 g streptomycin, 3.2 g agar and 80 ml water. Cotton leaf powder was prepared from freshly picked young, healthy cotton leaves which had been rapidly frozen in liquid nitrogen and freeze dried before they were ground to a fine powder using a mortar and pestle. Test diets contained the cyclic Kalata B1 peptide at 0.15% w/v of diet (high kalata) or 0.03% w/v of diet (low kalata), linear peptide (backbone chain opened between residues 7 and 8 [see FIG. 1A] at 0.15% w/v of diet. The control diet contained casein at 0.15% w/v of diet. The diet was mixed and dispensed as described for the Haricot bean diet and the bioassay was conducted in the same manner.
Newly hatched larvae were fed on an artificial diet based on cotton leaves, with and without added Kalata B1. […] Larvae on the Kalata B1 diet were about 18% of the size of those fed on the control diet.
Kalata peptides isolated from leaves are normally cyclic. The inventors sought to determine whether cyclization was essential for biological activity against insects. Newly hatched H. armigera larvae were added to an artificial diet based on cotton leaves which had been supplemented with cyclic Kalata B1 at either 0.15% w/v of diet or 0.03% w/v of diet. Growth of these larvae was compared to growth of larvae on diet with no added peptide or with added linear Kalata B1 at 0.15% w/v of the diet. Linear Kalata B1 is identical to cyclic Kalata B1 except the backbone chain is open between residues 7 and 8 [see FIG. 1A].

Kalata B1: 29 amino acid peptide with cyclic backbone and cystine knot from O. affinis (SEQ ID NO: 41) (cyclo(VCGETCVGGTCNTPGCTCSWPVCTRNGLP); disulfide (positions not given here); also: cystine knot, pairings not given here; listed as Oldenlandia affinis)
instar stage of development reached by survivors after 16 days ([1]; 0.825 μmol/g of diet, 16 days, most control larvae at fifth instar): none of the 12 survivors had progressed past the first instar stage of development
larvae that failed to survive past day 16 ([1]; 0.825 μmol/g of diet, day 16): 50%
mortality in the first six days ([1]; 0.825 μmol/g of diet, first six days, twenty neonates): No mortality
size of larvae after 16 days on artificial diet ([1]; 16 days, control diet ~30 mm (FIG. 13C)): ~5 mm
effect on the development of larvae ([1]; Haricot bean diet with peptide 0.825 μmol/g of diet): significant effect
size of larvae relative to those fed on the control diet ([2]; cotton leaf diet with added Kalata B1, 12 days): about 18%
instar stage of development reached after 12 days ([2]; cotton leaf diet, 12 days, control larvae at third to fourth instar): failed to progress past the first instar stage of development
effect on growth compared with the linear form ([2]; cyclic form at one fifth the concentration of the linear form (0.03% vs 0.15% w/v of diet)): more significant effect on growth
